Values joined by “and” are separate entries in the source; they are usually repeats but may differ in a detail not shown here. Identical values can stand only once.
How the values were obtained:
[1] = tested on: whole cell lysates of rat fibroblasts; experiment: Staining of two-dimensional gels of rat fibroblast lysates (Example 23); settings: 2-D gel, photography with 490-nm long pass filter
Description: The non-fixative nature of the staining solution is illustrated by evaluating passive elution of proteins from a polyacrylamide matrix. Passive diffuision of proteins is evaluated by staining two-dimensional gels in 7% acetic acid or in phosphate-buffered saline using Compound 9. Whole cell lysates of rat fibroblasts are extracted according to standard procedures for mammalian cells. Approximately 50 μg total protein is applied per gel and large format two dimensional gel electrophoresis is performed by standard methods. Compound 9 staining solution is prepared by diluting the stock reagent to 2 μM in either 7.5% acetic acid or 50 mM Na2HPO4, 150 mM NaCl, pH 7.0 while vigorously mixing. Approximately 500-750 mL of Compound 9 staining solution is used for a typical large format 2-D gel (20 cm×20 cm×1 mm). The gel is placed into the staining solution and the container is covered with aluminum foil to protect the dye from bright light. The gel is gently agitated for at least 30 minutes at room temperature using an orbital shaker (50 RPM). After staining the gel is briefly dipped in water and visualized on a UV light box. […] As little as 1 ng of protein can be visualized when the fluorescent image is recorded by photography using a cellophane 490-nm long pass filter. […]

bovine serum albumin = bovine serum albumin (Bos taurus, UniProt P02769); experiment: Fluorescence enhancement in presence of bovine serum albumin and SDS in solution (FIG. 5); format: physicochemical; settings: 10 mM Tris, pH 8.0, 200 μg/mL bovine serum albumin
Sequence of bovine serum albumin (P02769 25-607): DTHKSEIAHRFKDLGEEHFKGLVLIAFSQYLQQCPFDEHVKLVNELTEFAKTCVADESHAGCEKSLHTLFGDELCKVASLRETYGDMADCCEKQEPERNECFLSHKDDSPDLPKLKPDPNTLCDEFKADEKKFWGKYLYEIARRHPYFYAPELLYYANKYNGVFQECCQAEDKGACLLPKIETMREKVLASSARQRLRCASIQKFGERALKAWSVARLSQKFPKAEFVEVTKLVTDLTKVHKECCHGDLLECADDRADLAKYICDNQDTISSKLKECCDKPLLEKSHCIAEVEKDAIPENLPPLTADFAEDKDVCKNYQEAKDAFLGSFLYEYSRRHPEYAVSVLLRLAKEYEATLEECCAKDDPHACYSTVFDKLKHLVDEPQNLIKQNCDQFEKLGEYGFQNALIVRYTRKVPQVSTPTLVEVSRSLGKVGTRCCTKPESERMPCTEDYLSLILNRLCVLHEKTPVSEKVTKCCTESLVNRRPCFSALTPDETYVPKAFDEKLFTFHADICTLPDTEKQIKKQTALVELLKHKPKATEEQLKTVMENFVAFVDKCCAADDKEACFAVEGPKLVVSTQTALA
Description: FIG. 5: Fluorescence enhancement of Compound 9 in the presence of bovine serum albumin and sodium dodecyl sulfate in solution. Dye in 10 mM Tris, pH 8.0, 200 μg/mL bovine serum albumin, 0.05% SDS was compared with dye in 10 mM Tris, pH 8.0, 200 μg/mL bovine serum albumin, dye in 10 mM Tris, pH 8.0, 0.05% SDS or simply dye in 10 mM Tris, pH 8.0. A 7-fold enhancement in fluorescence emission of the dye in the presence of protein alone was observed relative to the dye in buffer alone. A 40-fold enhancement of fluorescence emission of the dye in the presence of anionic detergent and protein was observed relative to dye in buffer alone.

[2] = Fluorescence excitation/emission spectra in 2% SDS at acidic and neutral pH (Example 20, FIG. 1); format: physicochemical; settings: 2% SDS in 7% acetic acid or phosphate-buffered saline
Description: FIG. 1: Fluorescence excitation/emission spectra of Compound 9. Spectra were generated in 7% acetic acid, 2% SDS. […] Identical spectra were obtained in phosphate-buffered saline, 2% sodium dodecyl sulfate (SDS).
Excitation/emission profiles of Compound 9 are obtained by incubating a […] solution of the dye in 2% SDS that has been prepared in either 7% acetic acid or 50 mM Na2HPO4, 150 mM NaCl, pH 7.0 for 30 minutes. Without the SDS, the dye gives very low fluorescence emission in aqueous solutions or buffers. Measurements are made in a quartz cuvette using a Hitachi F4500 fluorescence Spectrometer (Hitachi, Tokyo, Japan) or similar instrument. Spectra generated in 7% acetic acid, 2% SDS can be essentially superimposed on spectra obtained in phosphate-buffered saline, 2% SDS. Excitation maxima are observed at 300 and 490 nm with emission set at 640 nm. An emission maximum is observed at 640 nm with excitation set at 440 nm. This excitation profile is ideally suited for visualization of the stain using a 302-nm UV-B transilluminator, 473-nm second harmonic generation (SHG) laser or 488-nm argon-ion laser. The dye can also be visualized on a blue-light box (DARK READER™, Clare Research, Boulder, Colo.). The emission maximum of the Compound 9 is observed at 640 nm, and is thus spectrally well matched to emission band-pass filters optimized for the Texas Red dye.

proteins [3] = experiment: Dye staining and dye stability in 12.5% trichloroacetic acid
Description: To make a staining mixture to combine with the sample mixture, including to test new dyes for their ability to stain proteins in a variety of situations, the selected dye is typically first dissolved in an organic solvent, such as DMSO, DMF or methanol, usually to a dye concentration of 1-10 mM. This concentrated stock solution is then generally diluted with an aqueous solution according to the assay being performed. Staining solutions can be stored and used for months without signal loss. The selected dye effectively stains proteins in a wide range of buffers if 100 mM NaCl is included in the staining solution. Acceptable buffers include, among others, 50-100 mM formate buffer, pH 4.0, sodium citrate, pH 4.5, sodium acetate, pH 5.0, MES, pH 6.0, imidazole, pH 7.0, HEPES, pH 7.5, Tris acetate, pH 8.0, Tris-HCl, pH 8.5, Tris borate, pH 9.0 and sodium bicarbonate, pH 10. Dye staining can also be performed in 12.5% trichloroacetic acid. […] A 20-minute wash in water removes the background and sensitive staining is obtained. […] Acetic acid may be included in the staining mixture, typically to a concentration of 5%-7.5% acetic acid, e.g. to improve labeling of gels relative to that obtained for dyes in water. For staining polypeptides in solution, the dye is diluted into an aqueous solution—preferably a buffered solution—that optionally contains a detergent. […]

proteins [4] = experiment: Prestaining of proteins prior to electrophoresis (Example 31); settings: prestaining before electrophoresis
Description: The proteins of interest are diluted to appropriate concentrations in electrophoresis sample buffer. The samples are then heated to 90-95° C. for 4-5 minutes and allowed to cool to room temperature. Compound 9 is added to the protein solutions to a final concentration of 10 mM, and the samples are loaded onto a 12% polyacrylamide gel, or other appropriate percentage gel. The gel is electrophoresed under standard conditions and visualized directly using ultraviolet illumination. The sensitivity of this method is somewhat less than the sensitivity possible using the methods in Example 22 (post staining the gel after electrophoresis) or in Example 30 (dye in running buffer).

## CCn1c2ccccc2c2cc(/C=C/c3cc[n+](CCCCS(=O)(=O)[O-])c4ccccc34)ccc21 [Compound 9]
[1]
  Amount of protein that can be visualized (detection sensitivity): 1 ng
Bovine serum albumin
  Enhancement in fluorescence emission, protein alone relative to dye in buffer alone: 7 fold
Bovine serum albumin; 0.05% SDS
  Enhancement of fluorescence emission, anionic detergent and protein relative to dye in buffer alone: 40 fold
[2]; emission set at 640 nm
  Excitation maxima: 300 nm and 490 nm
[2]; excitation set at 440 nm
  Emission maximum: 640 nm
Proteins [3]
  Staining of proteins in 12.5% trichloroacetic acid: stains proteins brightly, but also with bright background fluorescence
Proteins [3]; overnight
  Stability of dye on overnight exposure to 12.5% trichloroacetic acid: destroys much of the dye
Proteins [4]
  Sensitivity compared with methods of Example 22 or Example 30: somewhat less

From patent US6579718B1, “Carbazolylvinyl dye protein stains” (Molecular Probes, Inc., priority 2000, dated 2003)
